Test results as given in patent US20030199671A1, “Binding molecules for Fc-region polypeptides” (priority 2001, published 2003).
Where two headings read alike, the source gives them in different places. Positions of bridges follow the written chain, without caps; N, C: chain ends. Residues, ends and D or L forms follow the SMILES beside them. code X = not defined here; Su = not defined here

Tests used:
[1] = molecular target: T1, human IgG1 (Homo sapiens, UniProt P01857); format: binding; settings: Table 13
T1 construct: all human subtypes derived from myeloma patients; purchased Calbiochem 400120; host or cells: myeloma patients
Description: (§1) In addition, the following targets, all unfractionated IgGs, were also evaluated with selected immobilized peptides for species specificity characterization in a similar format: human IgG, goat IgG, bovine IgG, and mouse IgG (Sigma, product nos. I4506, I5256, I5506, and I15381, respectively). In addition, 10 μl aliquots of hydrolyzed NHS-activated Sepharose 4 Fast Flow (Amersham Pharmacia Biotech, product no. 17-0906-01) and immobilized recombinant Protein A (RepliGen Corp., product no. IPA-400) were also assayed as negative and positive controls. IgG targets were diluted into 10 mM phosphate buffer containing 150 mM NaCl and 0.01% Tween 20, pH 7.2 (PBST) or 50 mM Tris buffer containing, 150 mM NaCl and 0.01% Tween-20, pH 7.5 (TBST). Batch (static) binding and elution studies were conducted in a 96-well assay filterplate (Millipore MultiScreen-HV, with 0.45 μm Durapore membrane, product no. MAHVN4510). The target was allowed to incubate with the resin for 1-1.5 hours with shaking at room temperature. Unbound target was collected by centrifugation of samples from the assay plate directly into a low-UV absorbing 96-well collection plate (Costar, product no. 3635 or Greiner, product no. 655801). The unbound target was then quantitated by reading the absorbance at 280 nm (normalized to 1 cm pathlength, 1.4 mg/ml A280 extinction coefficient) of the collection plate on a microplate spectrophotometer (Molecular Devices Corp., SPECTRAmax PLUS) against a buffer blank.
(§2) The percentage bound target was determined by subtracting the mass determined as unbound from the corresponding condition's control values (control non-filtered added directly to the collection plate and/or the negative control). The assay plate was washed (3×) with 200 μl of binding buffer by vacuum filtration followed by addition of 100 μl of various elution conditions (e.g.: 0.1 M sodium bicarbonate buffer, pH 8.5 and/or 0.1 M sodium citrate buffer, pH 4.0). After a 30-60 minute incubation with shaking at room temperature, the eluted target was collected by centrifugation of the assay plate into another collection plate and quantitated in a similar manner. Percent elution of total load was then determined to characterize elution recovery efficiency under various conditions. The assay plate was then washed (3×) with 200 μl of binding buffer by vacuum filtration followed by addition of a resin cleaning condition (e.g., 0.1M CAPS buffer (3-[Cyclohexylamino]-1-propane-sulfonic acid), pH 11.5, to regenerate the resin for re-use. Percentage mass balance determination was calculated to be 90-100% on average.

[2] = molecular target: T2, human IgG2 (Homo sapiens, UniProt P01859); format: binding; settings: Table 13
T2 construct: all human subtypes derived from myeloma patients; purchased Calbiochem 400122; host or cells: myeloma patients
Description: as §1, §2

[3] = tested on: human IgG; format: binding
Description: as §1, §2

[4] = tested on: mouse IgG; format: binding; settings: Table 14; average ligand density 1.8 μM/ml
Description: as §1, §2

[5] = molecular target: IgG4 (Homo sapiens, UniProt P01861); format: binding; parameters: all human subtypes derived from myeloma patients; purchased Calbiochem 400126; host or cells: myeloma patients; settings: Table 13
Description: as §1, §2

[6] = tested on: human IgG; experiment: Static (filterplate) binding capacity; settings: Table 18; 25 mg human IgG applied per ml resin; average ligand density 1.9 μmole/ml
Description: These media were used to determine the effect of ligand density on human IgG binding capacity in both static (filterplate) and dynamic (mini-column) modes with commercial immobilized recombinant Protein A (Repligen, IPA400) at a single density as control. Actual ligand densities obtained ranged from 0.17 to 3.2 μmole/ml media as confirmed by quantitative amino acid analysis.
After incubation of the samples, with shaking, at room temperature for one hour, the supernatant liquid from each well, containing unbound IgG, was collected by centrifugation into the cognate well of a collection plate. The assay plate was washed three times with PBST (200 μl/wash) and bound IgG was eluted from the media samples by incubation for 30-60 minutes at room temperature in 100 μl Elution Buffer (100 mM CAPS, pH 11.5). Eluates were collected by centrifugation for analysis. Protein concentrations were determined from A280 measurements and plotted as a function of mg human IgG bound per ml resin vs. mg human IgG applied per ml resin.
The amount of IgG captured (estimated from IgG recovered in the elution step) by the various media is dependent upon both the IgG concentration and the ligand density. […] Under these static conditions, where both ligand and target concentrations are close to KD values, equilibrium binding is established and total capacities cannot be accurately determined. However, over the IgG range of 0 to 25 mg IgG applied per ml resin (0 to 2.5 mg/ml target added to 10 μl of resin), capture of IgG is linear. Beyond this point, up to a level of 200 mg IgG applied per ml resin, saturation becomes more pronounced.

[7] = molecular target: T3, human plasma IgG1 (Homo sapiens, UniProt P01857); experiment: Fluorescence anisotropy binding, Oregon Green labeled peptide
T3 construct: the individual human plasma IgG isoforms: IgG1, IgG2, IgG3, or IgG4; purchased Calbiochem; host or cells: human plasma
Description: (§3) Peptides were synthesized by BACHEM and then Oregon Green labeled and HPLC purified. Binding studies were performed using human plasma IgG isoforms: IgG1, IgG2, IgG3, and IgG4, obtained from Calbiochem.
(§4) Binding studies were carried out at either pH 4.0, 7.5, or 9.5, with or without salt in the following buffers:
(§5) 2) 10 mM Sodium Citrate, 500 mM Sodium Chloride, 0.01% Tween 20, pH 4.0;
(§6) 4) […], 500 mM Sodium Chloride, 0.01% Tween 20, pH 7.5;
(§7) 5) 10 mM Sodium Bicarbonate, 0.01% Tween 20, pH 9.5;
(§8) 6) 10 mM Sodium Bicarbonate, 500 mM Sodium Chloride, 0.01% Tween 20, pH 9.5; or […]

[8] = molecular target: T4, human plasma IgG2 (Homo sapiens, UniProt P01859); experiment: as above
T4 construct: the individual human plasma IgG isoforms: IgG1, IgG2, IgG3, or IgG4; purchased Calbiochem; host or cells: human plasma
Description: as §3, §4, §5, §6, §7, §8

[9] = molecular target: T5, human plasma IgG3 (Homo sapiens, UniProt P01860); experiment: as above
T5 construct: the individual human plasma IgG isoforms: IgG1, IgG2, IgG3, or IgG4; purchased Calbiochem; host or cells: human plasma
Description: as §3, §4, §5, §6, §7, §8

[10] = molecular target: T6, human plasma IgG4 (Homo sapiens, UniProt P01861); experiment: as above
T6 construct: the individual human plasma IgG isoforms: IgG1, IgG2, IgG3, or IgG4; purchased Calbiochem; host or cells: human plasma
Description: as §3, §4, §5, §6, §7, §8

T5 sequence (P01860 1-377 isoform P01860-1): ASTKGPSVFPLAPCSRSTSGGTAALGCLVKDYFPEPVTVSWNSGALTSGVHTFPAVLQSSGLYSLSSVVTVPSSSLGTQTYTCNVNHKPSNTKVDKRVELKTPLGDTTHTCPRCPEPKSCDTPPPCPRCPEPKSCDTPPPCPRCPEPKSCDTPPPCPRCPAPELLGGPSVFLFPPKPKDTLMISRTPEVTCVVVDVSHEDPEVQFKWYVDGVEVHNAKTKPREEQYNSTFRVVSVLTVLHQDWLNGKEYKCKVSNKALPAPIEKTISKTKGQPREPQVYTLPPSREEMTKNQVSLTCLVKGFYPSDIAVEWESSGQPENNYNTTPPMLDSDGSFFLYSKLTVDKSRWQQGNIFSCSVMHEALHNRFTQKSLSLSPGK
Chain of IgG4 (P01861 1-327 isoform P01861-1): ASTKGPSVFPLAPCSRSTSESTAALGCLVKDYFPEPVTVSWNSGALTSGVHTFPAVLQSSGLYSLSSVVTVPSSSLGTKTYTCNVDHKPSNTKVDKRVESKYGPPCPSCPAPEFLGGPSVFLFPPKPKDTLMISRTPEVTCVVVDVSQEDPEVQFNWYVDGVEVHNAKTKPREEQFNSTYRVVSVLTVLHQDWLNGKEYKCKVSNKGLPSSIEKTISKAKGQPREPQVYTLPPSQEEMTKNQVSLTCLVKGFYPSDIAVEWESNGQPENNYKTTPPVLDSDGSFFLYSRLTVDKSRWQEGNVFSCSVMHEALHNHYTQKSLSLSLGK
T6 sequence (P01861 1-327 isoform P01861-1): as above
T2 sequence (P01859 1-326 isoform P01859-1): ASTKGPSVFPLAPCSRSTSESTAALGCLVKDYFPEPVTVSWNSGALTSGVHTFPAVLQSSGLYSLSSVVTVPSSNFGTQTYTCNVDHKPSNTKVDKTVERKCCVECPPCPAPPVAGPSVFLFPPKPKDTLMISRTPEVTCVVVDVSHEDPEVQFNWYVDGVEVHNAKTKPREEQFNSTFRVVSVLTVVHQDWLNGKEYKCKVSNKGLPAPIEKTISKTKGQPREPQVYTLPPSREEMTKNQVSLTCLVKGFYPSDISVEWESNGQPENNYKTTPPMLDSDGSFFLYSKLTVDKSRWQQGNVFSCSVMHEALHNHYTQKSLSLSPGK
T4 sequence (P01859 1-326 isoform P01859-1): as above
T3 sequence (P01857 1-330 isoform P01857-1): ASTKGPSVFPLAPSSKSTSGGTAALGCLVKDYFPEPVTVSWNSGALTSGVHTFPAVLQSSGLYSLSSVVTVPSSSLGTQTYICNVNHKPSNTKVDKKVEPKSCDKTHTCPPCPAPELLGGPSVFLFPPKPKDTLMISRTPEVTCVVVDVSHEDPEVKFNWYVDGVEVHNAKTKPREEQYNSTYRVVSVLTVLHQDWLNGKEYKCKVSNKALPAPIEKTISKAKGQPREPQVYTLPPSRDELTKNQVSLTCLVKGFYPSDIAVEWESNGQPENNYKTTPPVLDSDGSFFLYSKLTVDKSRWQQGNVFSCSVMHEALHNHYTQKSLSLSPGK
T1 sequence (P01857 1-330 isoform P01857-1): as above

## Ac-GDSWNCAFHHNEMVWCDDGGTPGPEGGGK-NH2 (not fully specified (bridges); printed as Ac-GDSWNCAFHHNEMVWCDDGGTPGPEGGGK-NH2; cysteine pairing not given here) [DX597]
[1]
  hIgG1 elution pH 2.5 (% of Total Load): 76%
  hIgG1 elution pH 3.5 (% of Total Load): 81%
  hIgG1 elution pH 4.5 (% of Total Load): 39%
  hIgG1 elution pH 5.5 (% of Total Load): 1%
  hIgG1 elution pH 9.0 (% of Total Load): 52%
  hIgG1 elution pH 9.5 (% of Total Load): 57%
[2]
  hIgG2 elution pH 2.5 (% of Total Load): 82%
  hIgG2 elution pH 3.5 (% of Total Load): 80%
  hIgG2 elution pH 4.5 (% of Total Load): 38%
  hIgG2 elution pH 5.5 (% of Total Load): 1%
  hIgG2 elution pH 9.0 (% of Total Load): 51%
  hIgG2 elution pH 9.5 (% of Total Load): 60%
[3]; Table 14, average ligand density 1.8 μM/ml
  % IgG Capture - Batch Binding, Human IgG: 77%
[4]
  % IgG Capture - Batch Binding, Mouse IgG: 3%
[5]
  hIgG4 elution pH 2.5 (% of Total Load): 50%
  hIgG4 elution pH 3.5 (% of Total Load): 62%
  hIgG4 elution pH 4.5 (% of Total Load): 13%
  hIgG4 elution pH 5.5 (% of Total Load): 3%
  hIgG4 elution pH 9.0 (% of Total Load): 56%
  hIgG4 elution pH 9.5 (% of Total Load): 67%

## Ac-GDDHMCVYTTWGELIWCDNHEPG-X-Su-X-NH2 (Ac-GDDHMCVYTTWGELIWCDNHEPG-{code X-Su-code X-NH2}; not fully specified (bridges); printed as Ac-GDDHMCVYTTWGELIWCDNHEPG-X-Su-X-NH2; cysteine pairing not given here; reading uncertain) [DX878]
[3]; Table 18, average ligand density 1.9 μmole/ml
  Batch Binding (% Capture of Total Load) hIgG: 63%
[6]
  Static Cap.: 23 mg/mL

## CC(=O)N[C@@H](C)C(=O)NCC(=O)N[C@@H](Cc1ccc(O)cc1)C(=O)N[C@@H](Cc1c[nH]c2ccccc12)C(=O)N[C@@H](Cc1ccc(O)cc1)C(=O)N[C@H]1CSSC[C@@H](C(=O)N2CCC[C@H]2C(=O)N[C@@H](CC(C)C)C(=O)N[C@@H](Cc2ccc(O)cc2)C(=O)N2CCC[C@H]2C(=O)NCC(=O)N2CCC[C@H]2C(=O)N[C@@H](CCC(=O)O)C(=O)NCC(=O)NCC(=O)NCC(=O)N[C@@H](CCCCN)C(N)=O)NC(=O)[C@H](CCC(=O)O)NC(=O)[C@@H]2CCCN2C(=O)[C@H](CCCNC(=N)N)NC(=O)[C@H](CC(=O)O)NC(=O)[C@@H]2CCCN2C(=O)[C@H](Cc2ccccc2)NC(=O)[C@H](Cc2c[nH]c3ccccc23)NC1=O [DX413] (Ac-AGYWYCWFPDRPECPLYPGPEGGGK-NH2; disulfide 6-14 (inferred))
[7]; 10 nM Tris-HCl, 500 mM Sodium Chloride, pH 7.5, read-out: KD (μM) IgG1 pH 7.5 + salt
  Kd: > 10 µM
[7]; 10 mM Sodium Bicarbonate, 500 mM Sodium Chloride, pH 9.5, read-out: KD (μM) IgG1 pH 9.5 + salt
  Kd: > 10 µM
[7]; 10 mM Sodium Bicarbonate, pH 9.5, read-out: KD (μM) IgG1 pH 9.5 − salt
  Kd: > 10 µM
[7]; 10 mM Sodium Citrate, 500 mM Sodium Chloride, pH 4.0, read-out: KD (μM) IgG1 pH 4.0 + salt
  Kd: > 10 µM
[7]; 10 mM Sodium Citrate, pH 4.0, read-out: KD (μM) IgG1 pH 4.0 − salt
  Kd: > 10 µM
[7]; 10 mM Tris-HCl, pH 7.5, read-out: KD (μM) IgG1 pH 7.5 − salt
  Kd: > 10 µM
[8]; 10 nM Tris-HCl, 500 mM Sodium Chloride, pH 7.5, read-out: KD (μM) IgG2 pH 7.5 + salt
  Kd: > 10 µM
[8]; 10 mM Sodium Bicarbonate, 500 mM Sodium Chloride, pH 9.5, read-out: KD (μM) IgG2 pH 9.5 + salt
  Kd: > 10 µM
[8]; 10 mM Sodium Bicarbonate, pH 9.5, read-out: KD (μM) IgG2 pH 9.5 − salt
  Kd: > 10 µM
[8]; 10 mM Sodium Citrate, 500 mM Sodium Chloride, pH 4.0, read-out: KD (μM) IgG2 pH 4.0 + salt
  Kd: > 10 µM
[8]; 10 mM Sodium Citrate, pH 4.0, read-out: KD (μM) IgG2 pH 4.0 − salt
  Kd: > 10 µM
[8]; 10 mM Tris-HCl, pH 7.5, read-out: KD (μM) IgG2 pH 7.5 − salt
  Kd: > 10 µM
[9]; 10 nM Tris-HCl, 500 mM Sodium Chloride, pH 7.5, read-out: KD (μM) IgG3 pH 7.5 + salt
  Kd: > 10 µM
[9]; 10 mM Sodium Bicarbonate, 500 mM Sodium Chloride, pH 9.5, read-out: KD (μM) IgG3 pH 9.5 + salt
  Kd: > 10 µM
[9]; 10 mM Sodium Bicarbonate, pH 9.5, read-out: KD (μM) IgG3 pH 9.5 − salt
  Kd: > 10 µM
[9]; 10 mM Sodium Citrate, 500 mM Sodium Chloride, pH 4.0, read-out: KD (μM) IgG3 pH 4.0 + salt
  Kd: ~1 µM
[9]; 10 mM Sodium Citrate, pH 4.0, read-out: KD (μM) IgG3 pH 4.0 − salt
  Kd: ~1 µM
[9]; 10 mM Tris-HCl, pH 7.5, read-out: KD (μM) IgG3 pH 7.5 − salt
  Kd: > 10 µM
[10]; 10 nM Tris-HCl, 500 mM Sodium Chloride, pH 7.5, read-out: KD (μM) IgG4 pH 7.5 + salt
  Kd: > 10 µM
[10]; 10 mM Sodium Bicarbonate, 500 mM Sodium Chloride, pH 9.5, read-out: KD (μM) IgG4 pH 9.5 + salt
  Kd: > 10 µM
[10]; 10 mM Sodium Bicarbonate, pH 9.5, read-out: KD (μM) IgG4 pH 9.5 − salt
  Kd: > 10 µM
[10]; 10 mM Sodium Citrate, 500 mM Sodium Chloride, pH 4.0, read-out: KD (μM) IgG4 pH 4.0 + salt
  Kd: > 10 µM
[10]; 10 mM Sodium Citrate, pH 4.0, read-out: KD (μM) IgG4 pH 4.0 − salt
  Kd: > 10 µM
[10]; 10 mM Tris-HCl, pH 7.5, read-out: KD (μM) IgG4 pH 7.5 − salt
  Kd: > 10 µM
